In ChEMBL document CHEMBL1123680, “The influence of physicochemical parameters on the biliary excretion of a series of nitroimidazoles” (J Med Chem, 1987):

Legend:
[1] = Percent biliary excretion property by administering intravenously to rats was reported as amount of unchanged form of compound detected in bile samples collected at 0-4 hr after the treatment.; details: rat, iv
[2] = Percent biliary excretion property by administering intravenously to rats was reported as amount of unchanged form of compound detected in bile samples collected at 0-3 hr after the treatment.; details: rat, iv
[3] = Percent biliary excretion property by administering intravenously to rats was reported as amount of unchanged form of compound detected in bile samples collected at 0-2 hr after the treatment.; details: rat, iv
[4] = Partition coefficient (logP); details: octanol/water
[5] = Percent biliary excretion property by administering intravenously to rats was reported as amount of unchanged form of compound detected in bile samples collected at 0-6 hr after the treatment.; details: rat, iv
[6] = Percent biliary excretion property by administering intravenously to rats was reported as amount of unchanged form of compound detected in bile samples collected at 0-1 hr after the treatment.; details: rat, iv
[7] = Percent biliary excretion property by administering intravenously to rats was reported as amount of unchanged form of compound detected in bile samples collected at 0-5 hr after the treatment.; details: rat, iv

dose excreted [1] [%]	dose excreted [2] [%]	dose excreted [3] [%]	logP [4]	dose excreted [5] [%]	dose excreted [6] [%]	dose excreted [7] [%]	Compound
34.6	29.6	23.3	–	37.8	16.7	34.6	Cn1c([N+](=O)[O-])cnc1CO
7	5.11	3.43	–	8.94	1.91	8.42	COC(=S)NCCn1c([N+](=O)[O-])cnc1C [CARNIDAZOLE]
19.7	16.8	12.5	–	24.6	6.77	22.3	Cc1ncc([N+](=O)[O-])n1CCO [METRONIDAZOLE]
12.3	10.6	7.33	–	14.7	1.68	13.5	Cc1ncc([N+](=O)[O-])n1CC(O)CCl (stereo not drawn) [ORNIDAZOLE]
7.58	5.25	3.47	–	10.5	1.99	8.81	CCS(=O)(=O)CCn1c([N+](=O)[O-])cnc1C [TINIDAZOLE]

Further lines, the compound ahead of its results:

Compound	dose excreted [1] [%]	dose excreted [2] [%]	dose excreted [3] [%]	logP [4]	dose excreted [5] [%]	dose excreted [6] [%]	dose excreted [7] [%]
Cn1c([N+](=O)[O-])cnc1C=O	29.2	25	19.2	-0.69	32	13	31.1
O=[N+]([O-])c1c[nH]cn1	20.9	17.6	14.1	–	26.2	8.71	24.3
Cn1c([N+](=O)[O-])cnc1/C=C/c1ccnc(N)n1 [AZANIDAZOLE]	28.4	25	21.1	–	33.1	14.4	30.6
CC(C)c1ncc([N+](=O)[O-])n1C [IPRONIDAZOLE]	11.7	9.6	5.37	–	14	2.99	14
O=[N+]([O-])c1cncn1CCN1CCOCC1 [NIMORAZOLE]	8.71	6.92	5.25	–	11.8	3.42	10.7
Cn1c([N+](=O)[O-])cnc1COC(N)=O [RONIDAZOLE]	15.5	8.88	6.96	-0.38	19.7	4	16.2
